Test system: C26 cells
Assay: Metabolic activity of C26 cells after fatty acid pre-incubation and chemotherapy incubation
Format: cell-based, Murine
Conditions: 4 days pre-incubation with 50 µM fatty acid, medium removed, compared to control, p< 0.0001 for EPA or DPA
Procedure: C = mice receiving control diet B, TB = tumor-bearing mice receiving control diet, TB-SNC = tumor-bearing mice receiving the specific nutritional combination.
Prior to chemotherapy incubations, C26 cells were pre-incubated for 4 days with EPA, DHA or DPA in a final concentration of 50 µM. To avoid direct interaction between fatty acids and chemotherapeutics, the medium containing fatty acids was removed before the addition of chemotherapy. The cells were incubated for 24 hr with the chemotherapeutics cisplatin and doxorubicin, after incubation the metabolic activity was measured.

SMILES: CC/C=C\C/C=C\C/C=C\C/C=C\C/C=C\C/C=C\CCC(=O)O [DHA, docosahexanoic acid]
- metabolic activity after cisplatin treatment (then 24 hr cisplatin): no significant changes in metabolic activity
- metabolic activity of doxorubicin treated cells (then 24 hr doxorubicin): no significant changes in metabolic activity
